Measurements as given in ChEMBL document CHEMBL1921749, “5-Lipoxygenase-activating protein (FLAP) inhibitors. Part 4: development of 3-[3-tert-butylsulfanyl-1-[4-(6-ethoxypyridin-3-yl)benzyl]-5-(5-methylpyridin-2-ylmethoxy)-1H-indol-2-yl]-2,2-dimethylpropionic acid (AM803), a potent, oral, once daily FLAP inhibitor” (J Med Chem, 2011).

Tests used:
[1] = biological target: T1, Arachidonate 5-lipoxygenase-activating protein (Rattus norvegicus, UniProt P20291); experiment: Inhibition of FLAP in rat whole blood assessed as inhibition of calcium ionophore A23187-induced LTB4 production preincubated for 15 mins by ELISA; assay type: tissue-based
T1 sequence (P20291 whole entry): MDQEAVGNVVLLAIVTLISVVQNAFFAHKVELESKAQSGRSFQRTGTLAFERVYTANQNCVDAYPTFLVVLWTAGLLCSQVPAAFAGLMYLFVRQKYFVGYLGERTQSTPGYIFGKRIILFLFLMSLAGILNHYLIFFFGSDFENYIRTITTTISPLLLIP

[2] = biological target: T2, Arachidonate 5-lipoxygenase-activating protein (Homo sapiens, UniProt P20292); experiment: Inhibition of FLAP in human whole blood assessed as inhibition of calcium ionophore A23187-induced LTB4 production preincubated for 5 hrs by ELISA
T2 sequence (P20292 whole entry): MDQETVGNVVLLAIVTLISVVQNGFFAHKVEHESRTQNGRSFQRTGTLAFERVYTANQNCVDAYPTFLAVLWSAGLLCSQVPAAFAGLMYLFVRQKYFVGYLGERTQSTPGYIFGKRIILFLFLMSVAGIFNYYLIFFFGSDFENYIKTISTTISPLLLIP

[3] = biological target: Prostaglandin G/H synthase 1 (Homo sapiens, UniProt P23219); experiment: Inhibition of COX1-mediated TXB2 production in human whole blood after 30 mins by competitive enzyme immunoassay
[4] = biological target: T2, Arachidonate 5-lipoxygenase-activating protein; experiment: Inhibition of FLAP in human peripheral leukocytes assessed as inhibition of calcium ionophore A23187-induced LTB4 production after 5 mins by ELISA in absence of human serum albumin; assay type: cell-based
[5] = biological target: T2, Arachidonate 5-lipoxygenase-activating protein; experiment: Inhibition of FLAP in human peripheral leukocytes assessed as inhibition of calcium ionophore A23187-induced LTB4 production after 1 hr by ELISA in absence of human serum albumin; assay type: cell-based
[6] = biological target: T2, Arachidonate 5-lipoxygenase-activating protein; experiment: Inhibition of FLAP in human peripheral leukocytes assessed as inhibition of calcium ionophore A23187-induced LTB4 production after 10 mins by ELISA in presence of 0.5% human serum albumin; assay type: cell-based
[7] = biological target: Cytochrome P450 2C9 (Homo sapiens, UniProt P11712); experiment: Inhibition of human CYP2C9; assay type: ADME
[8] = Plasma protein binding in rat; assay type: ADME, cell-free; settings: read-out: PPB (converted)
[9] = test system: Rattus norvegicus; experiment: Antiinflammatory activity in rat assessed as inhibition of calcium ionophore A23187-induced LTB4 production in bronchoalveolar lavage fluid at 3 mg/kg, po administered 16 hrs prior to A23187 challenge; assay type: functional, Lung; set-up: scale not given: the % may be the effect or the level left
[10] = test system: Rattus norvegicus; experiment: Antiinflammatory activity in rat assessed as inhibition of calcium ionophore A23187-induced CysLT production in bronchoalveolar lavage fluid at 3 mg/kg, po administered 16 hrs prior to A23187 challenge; assay type: functional, Lung; set-up: scale not given: the % may be the effect or the level left
[11] = Half life in Beagle dog at 2 mg/kg, iv; assay type: ADME, organism-based, Canis lupus familiaris; set-up: dose 2 mg/kg, route intravenous; settings: in vivo
[12] = biological target: T3, Polyunsaturated fatty acid 5-lipoxygenase (Homo sapiens, UniProt P09917); experiment: Inhibition of 5-lipoxygenase
T3 sequence (P09917 whole entry): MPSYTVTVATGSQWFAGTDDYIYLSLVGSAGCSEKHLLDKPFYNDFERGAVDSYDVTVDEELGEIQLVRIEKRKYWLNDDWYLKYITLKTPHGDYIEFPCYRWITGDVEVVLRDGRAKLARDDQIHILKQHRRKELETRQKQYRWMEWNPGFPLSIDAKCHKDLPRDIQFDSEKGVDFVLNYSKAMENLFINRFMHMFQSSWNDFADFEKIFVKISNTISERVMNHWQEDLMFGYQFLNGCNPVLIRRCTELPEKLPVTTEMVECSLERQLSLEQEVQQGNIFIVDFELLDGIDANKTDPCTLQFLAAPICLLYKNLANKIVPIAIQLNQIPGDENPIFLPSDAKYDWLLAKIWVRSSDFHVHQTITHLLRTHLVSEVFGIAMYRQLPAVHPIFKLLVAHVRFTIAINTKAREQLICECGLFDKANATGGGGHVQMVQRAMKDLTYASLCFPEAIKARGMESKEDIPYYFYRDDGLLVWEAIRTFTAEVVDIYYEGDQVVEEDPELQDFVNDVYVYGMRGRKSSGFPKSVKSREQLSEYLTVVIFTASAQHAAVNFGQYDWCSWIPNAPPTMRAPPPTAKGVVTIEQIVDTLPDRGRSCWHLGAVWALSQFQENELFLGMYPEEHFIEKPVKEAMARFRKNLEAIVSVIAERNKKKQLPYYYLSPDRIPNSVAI

[13] = biological target: T4, Prostaglandin G/H synthase 2 (Homo sapiens, UniProt P35354); experiment: Inhibition of COX2-mediated PGE2 production in human whole blood assay
T4 sequence (P35354 whole entry): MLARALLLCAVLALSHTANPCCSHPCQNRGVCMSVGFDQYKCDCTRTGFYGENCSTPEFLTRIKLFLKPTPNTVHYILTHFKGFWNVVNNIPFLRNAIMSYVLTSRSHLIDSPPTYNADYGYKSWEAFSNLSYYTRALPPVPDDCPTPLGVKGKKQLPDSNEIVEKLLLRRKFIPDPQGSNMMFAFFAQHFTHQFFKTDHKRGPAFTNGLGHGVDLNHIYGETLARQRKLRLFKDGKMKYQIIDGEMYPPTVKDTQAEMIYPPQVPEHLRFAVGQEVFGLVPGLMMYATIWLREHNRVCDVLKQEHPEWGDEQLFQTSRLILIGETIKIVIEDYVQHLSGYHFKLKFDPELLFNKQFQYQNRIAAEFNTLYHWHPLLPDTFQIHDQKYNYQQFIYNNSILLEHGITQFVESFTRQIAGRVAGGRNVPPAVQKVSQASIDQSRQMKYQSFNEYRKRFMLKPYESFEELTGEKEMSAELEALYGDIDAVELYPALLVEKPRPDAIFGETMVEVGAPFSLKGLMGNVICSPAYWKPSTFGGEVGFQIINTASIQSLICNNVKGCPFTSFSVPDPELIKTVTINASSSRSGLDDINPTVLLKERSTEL

[14] = biological target: Cytochrome P450 2C19 (Homo sapiens, UniProt P33261); experiment: Inhibition of human CYP2C19; assay type: ADME
[15] = biological target: T5, Cytochrome P450 1A2 (Homo sapiens, UniProt P05177); experiment: Inhibition of human CYP1A2; assay type: ADME
T5 sequence (P05177 whole entry): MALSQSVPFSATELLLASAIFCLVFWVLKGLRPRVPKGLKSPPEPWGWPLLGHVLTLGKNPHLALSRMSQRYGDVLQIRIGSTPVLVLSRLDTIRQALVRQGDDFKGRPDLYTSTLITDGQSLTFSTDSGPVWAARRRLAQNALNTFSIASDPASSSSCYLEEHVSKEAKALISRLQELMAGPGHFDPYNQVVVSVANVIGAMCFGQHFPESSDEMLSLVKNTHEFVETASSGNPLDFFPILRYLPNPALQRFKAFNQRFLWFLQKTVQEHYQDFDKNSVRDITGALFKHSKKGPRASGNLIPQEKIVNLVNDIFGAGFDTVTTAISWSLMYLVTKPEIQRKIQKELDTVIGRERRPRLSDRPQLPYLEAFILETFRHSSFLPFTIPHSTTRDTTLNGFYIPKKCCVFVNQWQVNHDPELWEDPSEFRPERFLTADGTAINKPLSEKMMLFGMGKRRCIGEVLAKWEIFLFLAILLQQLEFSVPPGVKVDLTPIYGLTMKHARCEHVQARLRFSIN

Cytochrome P450 2C9, sequence (P11712 whole entry): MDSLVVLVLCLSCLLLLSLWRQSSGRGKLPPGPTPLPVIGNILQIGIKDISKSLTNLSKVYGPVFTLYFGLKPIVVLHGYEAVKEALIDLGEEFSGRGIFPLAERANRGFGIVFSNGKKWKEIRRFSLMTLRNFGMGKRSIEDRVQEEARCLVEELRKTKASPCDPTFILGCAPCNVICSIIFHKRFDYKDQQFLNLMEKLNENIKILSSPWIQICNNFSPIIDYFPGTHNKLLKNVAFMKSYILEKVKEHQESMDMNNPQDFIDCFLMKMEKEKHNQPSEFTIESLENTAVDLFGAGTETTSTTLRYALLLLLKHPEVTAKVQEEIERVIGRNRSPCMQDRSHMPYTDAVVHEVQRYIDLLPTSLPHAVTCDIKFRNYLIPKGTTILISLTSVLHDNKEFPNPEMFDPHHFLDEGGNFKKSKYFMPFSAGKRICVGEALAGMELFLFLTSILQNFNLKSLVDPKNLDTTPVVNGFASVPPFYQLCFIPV
Prostaglandin G/H synthase 1, sequence (P23219 whole entry): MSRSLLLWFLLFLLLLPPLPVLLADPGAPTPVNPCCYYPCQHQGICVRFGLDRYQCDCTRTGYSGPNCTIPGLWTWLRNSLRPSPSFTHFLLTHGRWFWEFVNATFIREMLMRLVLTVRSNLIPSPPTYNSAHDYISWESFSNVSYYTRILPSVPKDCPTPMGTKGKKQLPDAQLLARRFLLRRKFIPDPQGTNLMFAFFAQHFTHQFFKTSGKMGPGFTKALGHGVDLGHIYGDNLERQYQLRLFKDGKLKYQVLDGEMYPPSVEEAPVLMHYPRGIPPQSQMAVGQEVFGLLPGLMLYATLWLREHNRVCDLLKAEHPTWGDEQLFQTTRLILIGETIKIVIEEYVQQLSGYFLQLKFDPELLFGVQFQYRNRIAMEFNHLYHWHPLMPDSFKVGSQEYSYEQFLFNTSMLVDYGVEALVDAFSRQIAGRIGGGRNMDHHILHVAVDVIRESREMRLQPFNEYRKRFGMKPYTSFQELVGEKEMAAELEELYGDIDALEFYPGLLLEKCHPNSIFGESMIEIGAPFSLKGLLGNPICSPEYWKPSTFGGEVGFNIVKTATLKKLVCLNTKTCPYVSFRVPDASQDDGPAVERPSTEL
Cytochrome P450 2C19, sequence (P33261 whole entry): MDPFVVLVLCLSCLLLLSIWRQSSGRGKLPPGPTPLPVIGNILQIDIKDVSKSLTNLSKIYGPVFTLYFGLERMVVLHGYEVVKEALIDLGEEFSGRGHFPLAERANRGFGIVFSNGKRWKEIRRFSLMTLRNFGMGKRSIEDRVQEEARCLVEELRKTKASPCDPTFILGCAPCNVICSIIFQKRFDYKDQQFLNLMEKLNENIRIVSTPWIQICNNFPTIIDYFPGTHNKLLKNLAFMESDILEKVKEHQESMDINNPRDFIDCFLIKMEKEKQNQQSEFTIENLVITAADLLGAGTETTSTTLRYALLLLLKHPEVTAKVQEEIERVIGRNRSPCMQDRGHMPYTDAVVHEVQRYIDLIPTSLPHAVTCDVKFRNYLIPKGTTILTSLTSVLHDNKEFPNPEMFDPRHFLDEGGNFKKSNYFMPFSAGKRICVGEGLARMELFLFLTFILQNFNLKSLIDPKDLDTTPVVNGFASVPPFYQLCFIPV

Compound `CCOc1ccc(-c2ccc(Cn3c(CC(C)(C)C(=O)O)c(SC(C)(C)C)c4cc(OCc5ccc(C)cn5)ccc43)cc2)cn1` [FIBOFLAPON] has an IC50 [1] of 239 nM, an IC50 [2] of 76 nM and an IC50 [3] of 58000 nM. For the same compound, the IC50 [4] was 1 nM, the IC50 [5] was 1 nM and the IC50 [6] was 26 nM. The IC50 [7] was > 50000 nM, the fraction unbound [8] was 0.002 and the Activity [9] was 86%. For the same compound, the Activity [10] was 41%, the half-life [11] was 13 h and the IC50 [12] was 20000 nM. The IC50 [13] was > 100000 nM, the IC50 [14] was > 40000 nM and the IC50 [15] was > 40000 nM.
